pKi: −log10 of the molar value. Where two headings read alike, the source gives them in different places.

Holding throughout (assay): biochemical
Type in all cases: binding

The target in experiment [1] is T1, receptors in rat forebrain (mainly α4β2) (Rattus norvegicus, UniProt P09483+P12390).
T1 construct: from tissue; host or cells: rat forebrain homogenate
The text has this: (§1) In order to assess the steric and hydropathic effects of the C-5 substituents of the pyridine on the binding affinity and subtype-selectivity at neuronal nicotinic acetylcholine receptors. […] The binding affinity ratios for a ligand, calculated from its affinities at an α subunit paired with either the β2 osubunit or the β4 subunit, represents a measure of the selectivity of that ligand with regard to the β subunits.
In Vitro Inhibition of ^3H-Epibatidin Binding
The high affinity binding site for ^3H-epibatidin is most certainly binding to the α4β2 subtype of nicotinic receptors. The identity of the low affinity site is still believed to be unknown.
Tissue preparation: Preparations may be performed at 0-4° C. unless otherwise indicated. […] The tissue suspension may then be centrifuged at 27,000×g for 10 min. The supernatant is then discarded and the pellet may then be washed three times by centrifugation at 27,000×g for 10 min in 20 mL fresh buffer, and the final pellet may be resuspended in fresh buffer (400 mL per g of original tissue) and used for binding assays.
Assay: Aliquots of 2.0 mL homogenate may be added to 0.100 mL of test solution and 0.100 mL of ^3H-epibatidin (0.3 nM, final concentration), mixed and incubated for 60 min at room temperature. […] The amount of radioactivity on the filters may be determined by conventional liquid scintillation counting. Specific binding is total binding minus non-specific binding.

Another experiment addresses T2, α4β2 nAChR subtype (Rattus norvegicus, UniProt P09483+P12390).
T2 construct: expressed in transfected cells
From the text: as §1

A further experiment deals with T3, α3β2 nAChR subtype (Rattus norvegicus, UniProt P04757+P12390).
T3 construct: expressed in transfected cells
From the text: as §1

The target of another experiment is T4, α2β2 nAChR subtype (Rattus norvegicus, UniProt P12389+P12390).
T4 construct: expressed in transfected cells
From the text: as §1

A further experiment addresses T5, α3β4 nAChR subtype (Rattus norvegicus, UniProt P04757+P12392).
T5 construct: expressed in transfected cells
From the text: as §1

Another experiment addresses T6, α4β4 nAChR subtype (Rattus norvegicus, UniProt P09483+P12392).
T6 construct: expressed in transfected cells
From the text: as §1

A further experiment has as its target T7, α2β4 nAChR subtype (Rattus norvegicus, UniProt P12389+P12392).
T7 construct: expressed in transfected cells
From the text: as §1

Setting [2] is: Ki α4β2*, Table 5, *Rat forebrain, mainly α4β2.
Setting [3] is: Ki α4β2, Table 5, rat nAChR subtypes.
The mark [4] stands for this setting: Ki α3β2, Table 5, rat nAChR subtypes.
The mark [5] stands for this setting: Ki α2β2, Table 5, rat nAChR subtypes.
Where [6] appears, read: Ki α3β4, Table 5, rat nAChR subtypes.
The mark [7] stands for this setting: Ki α4β4, Table 5, rat nAChR subtypes.
Setting [8] is: Ki α2β4, Table 5, rat nAChR subtypes.

T6 sequence (P12392 21-495): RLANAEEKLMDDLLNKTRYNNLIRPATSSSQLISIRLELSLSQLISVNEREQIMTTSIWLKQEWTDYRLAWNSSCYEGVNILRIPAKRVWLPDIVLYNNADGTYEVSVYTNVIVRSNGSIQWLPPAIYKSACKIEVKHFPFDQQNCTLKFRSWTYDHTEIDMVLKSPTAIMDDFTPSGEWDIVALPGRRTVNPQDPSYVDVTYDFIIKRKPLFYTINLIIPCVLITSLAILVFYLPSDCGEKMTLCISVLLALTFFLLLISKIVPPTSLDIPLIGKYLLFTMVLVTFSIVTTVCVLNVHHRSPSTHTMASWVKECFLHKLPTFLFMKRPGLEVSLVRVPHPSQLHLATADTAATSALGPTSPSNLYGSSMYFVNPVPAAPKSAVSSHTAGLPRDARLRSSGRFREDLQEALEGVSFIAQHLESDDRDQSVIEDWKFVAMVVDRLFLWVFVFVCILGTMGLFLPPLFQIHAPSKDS
T6 sequence (P09483 31-630): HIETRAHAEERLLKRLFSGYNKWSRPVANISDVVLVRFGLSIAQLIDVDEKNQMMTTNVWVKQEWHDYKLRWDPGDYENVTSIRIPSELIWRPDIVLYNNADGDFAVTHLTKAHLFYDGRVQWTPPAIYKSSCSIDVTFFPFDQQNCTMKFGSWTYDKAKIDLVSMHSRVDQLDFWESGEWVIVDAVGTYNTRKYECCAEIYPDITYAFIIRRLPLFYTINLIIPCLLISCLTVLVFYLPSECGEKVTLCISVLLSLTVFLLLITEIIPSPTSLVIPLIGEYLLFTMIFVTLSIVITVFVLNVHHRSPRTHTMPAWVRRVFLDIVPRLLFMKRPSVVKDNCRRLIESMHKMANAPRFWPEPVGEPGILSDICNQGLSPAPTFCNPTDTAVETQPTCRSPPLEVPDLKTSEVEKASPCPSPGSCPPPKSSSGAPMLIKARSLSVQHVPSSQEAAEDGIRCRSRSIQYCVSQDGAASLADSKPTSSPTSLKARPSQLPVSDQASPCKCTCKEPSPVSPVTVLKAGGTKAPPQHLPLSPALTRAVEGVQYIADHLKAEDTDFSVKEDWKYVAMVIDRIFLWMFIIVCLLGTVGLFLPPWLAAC
T5 sequence (P04757 26-499): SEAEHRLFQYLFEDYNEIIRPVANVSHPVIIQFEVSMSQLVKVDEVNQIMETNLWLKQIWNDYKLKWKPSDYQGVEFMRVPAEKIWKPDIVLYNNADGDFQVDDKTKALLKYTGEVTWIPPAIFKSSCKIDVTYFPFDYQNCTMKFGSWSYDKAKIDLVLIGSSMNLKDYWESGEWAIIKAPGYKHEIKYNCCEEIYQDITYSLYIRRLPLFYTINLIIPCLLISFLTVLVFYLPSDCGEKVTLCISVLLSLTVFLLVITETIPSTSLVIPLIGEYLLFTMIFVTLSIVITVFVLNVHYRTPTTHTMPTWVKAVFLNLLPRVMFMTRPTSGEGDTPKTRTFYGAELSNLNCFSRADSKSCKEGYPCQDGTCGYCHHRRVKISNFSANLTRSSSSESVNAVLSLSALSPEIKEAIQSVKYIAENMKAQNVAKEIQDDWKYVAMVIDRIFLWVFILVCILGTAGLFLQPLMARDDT
T5 sequence (P12392 21-495): as the sequence (P12392 21-495) above
T4 sequence (P12390 25-500): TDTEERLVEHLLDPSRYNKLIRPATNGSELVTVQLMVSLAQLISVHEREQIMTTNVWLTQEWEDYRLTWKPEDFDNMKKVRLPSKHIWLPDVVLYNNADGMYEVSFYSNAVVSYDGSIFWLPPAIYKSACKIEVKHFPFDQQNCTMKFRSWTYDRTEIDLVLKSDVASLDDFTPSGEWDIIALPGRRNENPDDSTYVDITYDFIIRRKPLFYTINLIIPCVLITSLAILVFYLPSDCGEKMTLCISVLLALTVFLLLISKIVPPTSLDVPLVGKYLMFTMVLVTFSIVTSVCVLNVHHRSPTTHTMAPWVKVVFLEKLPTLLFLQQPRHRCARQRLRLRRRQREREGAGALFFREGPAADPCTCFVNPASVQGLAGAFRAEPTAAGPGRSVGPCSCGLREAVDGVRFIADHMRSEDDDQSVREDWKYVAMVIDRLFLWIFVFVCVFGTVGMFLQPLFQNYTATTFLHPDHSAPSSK
T4 sequence (P12389 28-511): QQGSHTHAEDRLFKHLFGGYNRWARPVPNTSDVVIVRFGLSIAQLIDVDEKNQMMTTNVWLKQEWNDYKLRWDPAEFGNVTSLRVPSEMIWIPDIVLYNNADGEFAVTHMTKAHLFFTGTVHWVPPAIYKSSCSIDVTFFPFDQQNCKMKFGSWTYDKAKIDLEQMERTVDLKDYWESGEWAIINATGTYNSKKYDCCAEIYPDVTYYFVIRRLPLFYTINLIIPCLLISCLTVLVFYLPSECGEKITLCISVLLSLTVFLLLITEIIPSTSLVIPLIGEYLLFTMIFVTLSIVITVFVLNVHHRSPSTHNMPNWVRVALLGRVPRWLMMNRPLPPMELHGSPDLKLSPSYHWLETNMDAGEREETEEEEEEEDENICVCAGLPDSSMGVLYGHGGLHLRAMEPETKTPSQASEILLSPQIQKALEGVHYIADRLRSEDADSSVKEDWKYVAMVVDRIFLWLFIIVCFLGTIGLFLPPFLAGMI
T2 sequence (P12390 25-500): as the sequence (P12390 25-500) above
T2 sequence (P09483 31-630): as the sequence (P09483 31-630) above
T3 sequence (P12390 25-500): as the sequence (P12390 25-500) above
T3 sequence (P04757 26-499): as the sequence (P04757 26-499) above
T7 sequence (P12389 28-511): as the sequence (P12389 28-511) above
T7 sequence (P12392 21-495): as the sequence (P12392 21-495) above
T1 sequence (P09483 31-630): as the sequence (P09483 31-630) above
T1 sequence (P12390 25-500): as the sequence (P12390 25-500) above

On to `CN1CCC[C@H]1COc1cncc(C#CCCCCO)c1` [Ligand 16], for which the pKi in experiment [1] is 8.45; at α4β2 nAChR subtype, 9.09; at α3β2 nAChR subtype it was 7.90; at α2β2 nAChR subtype, 8.54; at α3β4 nAChR subtype, 4.40; on α4β4 nAChR subtype, 5.90. At α2β4 nAChR subtype, the pKi is 5.49.
On to `O=c1cccc2n1C[C@H]1C[C@@H]2CN(CCCOc2cccnc2)C1` [ZW-17], for which the pKi in experiment [1] is 5.34; on α4β2 nAChR subtype it was 5.51; on α3β2 nAChR subtype it was less than 6.00; at α2β2 nAChR subtype, 5.53; on α3β4 nAChR subtype it was less than 5.00; on α4β4 nAChR subtype, 5.49. The same compound had a pKi at α2β4 nAChR subtype of 4.85.
Take `O=C1CC2CC(c3ccc(Cl)nc3)C1N2` (stereo not drawn) [Ligand 5, 2-exo-(2-Chloro-5-pyridyl)-7-azabicyclo[2.2.1]heptan-6-one]: the pKi in experiment [1] (setting [2]) was 5.87; on α4β2 nAChR subtype (setting [3]), 5.69; at α3β2 nAChR subtype (setting [4]), 5.82; on α2β2 nAChR subtype (setting [5]) it was 6.00; on α3β4 nAChR subtype (setting [6]) it was 5.05; on α4β4 nAChR subtype (setting [7]) it was 5.45. Also, the pKi at α2β4 nAChR subtype (setting [8]) is 5.49.
In the case of `FC1CC2NC1CC2c1ccc(Cl)nc1` (stereo not drawn) [Ligand 10, 2-exo-(2-Chloro-5-pyridyl)-5-exo-fluoro-7-azabicyclo[2.2.1]heptane], the pKi in experiment [1] (setting [2]) was 8.68; on α4β2 nAChR subtype (setting [3]) it was 8.76; at α3β2 nAChR subtype (setting [4]) it was 9.19; on α2β2 nAChR subtype (setting [5]), 9.06; at α3β4 nAChR subtype (setting [6]), 7.98; at α4β4 nAChR subtype (setting [7]), 8.91. The same compound gave a pKi on α2β4 nAChR subtype (setting [8]) of 8.25.
For `OC1C2CCC(N2)C1c1ccc(Cl)nc1` (single isomer, unassigned) [Ligand 2], the pKi in experiment [1] (setting [2]) is 5.69; on α4β2 nAChR subtype (setting [3]), 5.63; on α3β2 nAChR subtype (setting [4]), 5.95; at α2β2 nAChR subtype (setting [5]), 6.09; on α3β4 nAChR subtype (setting [6]), 5.93; on α4β4 nAChR subtype (setting [7]), 6.29. The same compound showed a pKi at α2β4 nAChR subtype (setting [8]) of 6.21.
Turning to `Clc1ccc(C2CC3CCC2N3CCCN2C3CCC2C(c2ccc(Cl)nc2)C3)cn1` (stereo not drawn) [Ligand 59b, Propane-1,3-N,N′-bisepibatidine], the pKi in experiment [1] (Table 5, *Rat forebrain, mainly α4β2, read-out: Ki α4β2*) is 8.00; on α4β2 nAChR subtype (Table 5, rat nAChR subtypes, read-out: Ki α4β2), 8.06; on α3β2 nAChR subtype (Table 5, rat nAChR subtypes, read-out: Ki α3β2) it was 8.29; on α2β2 nAChR subtype (Table 5, rat nAChR subtypes, read-out: Ki α2β2), 8.22; at α3β4 nAChR subtype (Table 5, rat nAChR subtypes, read-out: Ki α3β4), 7.20; on α4β4 nAChR subtype (Table 5, rat nAChR subtypes, read-out: Ki α4β4) it was 7.63. On α2β4 nAChR subtype (Table 5, rat nAChR subtypes, read-out: Ki α2β4), the pKi is 7.80.
For `CN1CCC[C@H]1COc1cncc(CCCCCCO)c1` [Ligand 19], the pKi in experiment [1] was 8.27; at α4β2 nAChR subtype (Ki α4β2, Table 1, mean of 3 (1, 2: 3 to 6) independent measurements) it was 9.12; on α3β2 nAChR subtype it was 7.87; on α2β2 nAChR subtype, 8.48; at α3β4 nAChR subtype (Ki α3β4, Table 1, mean of 3 (1, 2: 3 to 6) independent measurements), 4.70; at α4β4 nAChR subtype it was 6.01. On α2β4 nAChR subtype, this compound showed a pKi of 5.94.
For the compound `c1cncc(OC[C@@H]2CCN2)c1` [Ligand A-85380, reference compound], the pKi in experiment [1] (Ki α4β2**, Table 6, **Forebrain mainly α4β2, [3H]-EB 0.099 nM, 0.091 nM, n = 1) was 9.61; in experiment [1] (setting [2]), 9.61; on α4β2 nAChR subtype (setting [3]) it was 9.85; on α4β2 nAChR subtype (Ki α4β2, Table 6, [3H]-EB 0.099 nM, 0.091 nM, ligand 0.00197-100 μM, n = 1), 9.85; on α3β2 nAChR subtype (setting [4]) it was 9.68; on α3β2 nAChR subtype (Ki α3β2, Table 6, [3H]-EB 0.099 nM, 0.091 nM, ligand 0.00197-100 μM, n = 1), 9.68. Further, the pKi at α2β2 nAChR subtype (setting [5]) is 10.14; at α3β4 nAChR subtype (setting [6]), 7.11; on α3β4 nAChR subtype (Ki α3β4, Table 6, [3H]-EB 0.099 nM, 0.091 nM, ligand 0.00197-100 μM, n = 1) it was 7.11; on α4β4 nAChR subtype (setting [7]), 8.09; on α4β4 nAChR subtype (Ki α4β4, Table 6, [3H]-EB 0.099 nM, 0.091 nM, ligand 0.00197-100 μM, n = 1), 8.09; at α2β4 nAChR subtype (setting [8]), 7.74. On α2β4 nAChR subtype (Ki α2β4, Table 6, [3H]-EB 0.099 nM, 0.091 nM, ligand 0.00197-100 μM, n = 1), this compound showed a pKi of 7.74.
`COC(=O)c1nc(Cl)ccc1C1CC2CCC1N2` (stereo not drawn) [ZW-96]: the pKi is 4.74 in experiment [1] (setting [2]); 5.10 at α4β2 nAChR subtype (setting [3]); 5.26 on α3β2 nAChR subtype (setting [4]); 5.27 at α2β2 nAChR subtype (setting [5]); 4.97 at α3β4 nAChR subtype (setting [6]); 4.33 at α4β4 nAChR subtype (setting [7]). For the same compound, the pKi on α2β4 nAChR subtype (setting [8]) is 4.55.

These data come from patent publication US8030300B2, “Ligands for nicotinic acetylcholine receptors, and methods of making and using them” (priority 2003, dated 2011).
